Assay results: patent publication US6492375B2, “Partially saturated calcium channel blockers” (NeuroMed Technologies, Inc., priority 1998, dated 2002)
Values joined by “and” are separate entries in the source; they are usually repeats but may differ in a detail not shown here. Equal values may be shown once.

Target: T1, rat α1B+α2b+β1b channels (Rattus norvegicus, UniProt Q02294)
T1 construct: expressed in transfected cells
Test: N-type calcium channel blocking activity, whole cell patch recordings
Assay type: cell-based
Details: N-type calcium channels expressed in human embryonic kidney cells; 5 mM barium as charge carrier
Procedure: Antagonist activity was measured using whole cell patch recordings on human embryonic kidney cells either stably or transiently expressing rat α1B+α2b+β1b channels with 5 mM barium as a charge carrier.
For transient expression, host cells, such as human embryonic kidney cells, HEK 293 (ATCC# CRL 1573) are grown in standard DMEM medium supplemented with 2 mM glutamine and 10% fetal bovine serum. HEK 293 cells are transfected by a standard calcium-phosphate-DNA coprecipitation method using the rat α1B+β1b+α2δ N-type calcium channel subunits in a vertebrate expression vector (for example, see Current Protocols in Molecular Biology).
After an incubation period of from 24 to 72 hrs the culture medium is removed and replaced with external recording solution (see below). Whole cell patch clamp experiments are performed using an Axopatch 200B amplifier (Axon Instruments, Burlingame, Calif.) linked to an IBM compatible personal computer equipped with pCLAMP software. Borosilicate glass patch pipettes (Sutter Instrument Co., Novato, Calif.) were polished (Microforge, Narishige, Japan) to a resistance of about 4 MΩ when filled with cesium methanesulfonate internal solution (composition in MM: 109 CsCH3SO4, 4 MgCl2, 9 EGTA, 9 HEPES, pH 7.2). Cells were bathed in 5 mM Ba^++ (in mM: 5 BaCl2, 1 MgCl2, 10 HEPES, 40 tetraethylammonium chloride, 10 glucose, 87.5 CsCl pH 7.2). Current data shown were elicited by a train of 100 ms test pulses at 0.066 Hz from −100 mV and/or −80 mV to various potentials (min. −20 mV, max. +30 mV). Drugs were perfused directly into the vicinity of the cells using a microperfusion system.
Normalized dose-response curves were fit (Sigmaplot 4.0, SPSS Inc., Chicago, Ill.) by the Hill equation to determine IC50 values. Steady-state inactivation curves were plotted as the normalized test pulse amplitude following 5 s inactivating prepulses at +10 mV increments. Inactivation curves were fit (Sigmaplot 4.0) with the Boltzman equation, Ipeak (normalized)=1/(1+exp((V-Vh)z/25.6)), where V and Vh are the conditioning and half inactivation potentials, respectively, and z is the slope factor. […]

T1 sequence (Q02294 whole entry): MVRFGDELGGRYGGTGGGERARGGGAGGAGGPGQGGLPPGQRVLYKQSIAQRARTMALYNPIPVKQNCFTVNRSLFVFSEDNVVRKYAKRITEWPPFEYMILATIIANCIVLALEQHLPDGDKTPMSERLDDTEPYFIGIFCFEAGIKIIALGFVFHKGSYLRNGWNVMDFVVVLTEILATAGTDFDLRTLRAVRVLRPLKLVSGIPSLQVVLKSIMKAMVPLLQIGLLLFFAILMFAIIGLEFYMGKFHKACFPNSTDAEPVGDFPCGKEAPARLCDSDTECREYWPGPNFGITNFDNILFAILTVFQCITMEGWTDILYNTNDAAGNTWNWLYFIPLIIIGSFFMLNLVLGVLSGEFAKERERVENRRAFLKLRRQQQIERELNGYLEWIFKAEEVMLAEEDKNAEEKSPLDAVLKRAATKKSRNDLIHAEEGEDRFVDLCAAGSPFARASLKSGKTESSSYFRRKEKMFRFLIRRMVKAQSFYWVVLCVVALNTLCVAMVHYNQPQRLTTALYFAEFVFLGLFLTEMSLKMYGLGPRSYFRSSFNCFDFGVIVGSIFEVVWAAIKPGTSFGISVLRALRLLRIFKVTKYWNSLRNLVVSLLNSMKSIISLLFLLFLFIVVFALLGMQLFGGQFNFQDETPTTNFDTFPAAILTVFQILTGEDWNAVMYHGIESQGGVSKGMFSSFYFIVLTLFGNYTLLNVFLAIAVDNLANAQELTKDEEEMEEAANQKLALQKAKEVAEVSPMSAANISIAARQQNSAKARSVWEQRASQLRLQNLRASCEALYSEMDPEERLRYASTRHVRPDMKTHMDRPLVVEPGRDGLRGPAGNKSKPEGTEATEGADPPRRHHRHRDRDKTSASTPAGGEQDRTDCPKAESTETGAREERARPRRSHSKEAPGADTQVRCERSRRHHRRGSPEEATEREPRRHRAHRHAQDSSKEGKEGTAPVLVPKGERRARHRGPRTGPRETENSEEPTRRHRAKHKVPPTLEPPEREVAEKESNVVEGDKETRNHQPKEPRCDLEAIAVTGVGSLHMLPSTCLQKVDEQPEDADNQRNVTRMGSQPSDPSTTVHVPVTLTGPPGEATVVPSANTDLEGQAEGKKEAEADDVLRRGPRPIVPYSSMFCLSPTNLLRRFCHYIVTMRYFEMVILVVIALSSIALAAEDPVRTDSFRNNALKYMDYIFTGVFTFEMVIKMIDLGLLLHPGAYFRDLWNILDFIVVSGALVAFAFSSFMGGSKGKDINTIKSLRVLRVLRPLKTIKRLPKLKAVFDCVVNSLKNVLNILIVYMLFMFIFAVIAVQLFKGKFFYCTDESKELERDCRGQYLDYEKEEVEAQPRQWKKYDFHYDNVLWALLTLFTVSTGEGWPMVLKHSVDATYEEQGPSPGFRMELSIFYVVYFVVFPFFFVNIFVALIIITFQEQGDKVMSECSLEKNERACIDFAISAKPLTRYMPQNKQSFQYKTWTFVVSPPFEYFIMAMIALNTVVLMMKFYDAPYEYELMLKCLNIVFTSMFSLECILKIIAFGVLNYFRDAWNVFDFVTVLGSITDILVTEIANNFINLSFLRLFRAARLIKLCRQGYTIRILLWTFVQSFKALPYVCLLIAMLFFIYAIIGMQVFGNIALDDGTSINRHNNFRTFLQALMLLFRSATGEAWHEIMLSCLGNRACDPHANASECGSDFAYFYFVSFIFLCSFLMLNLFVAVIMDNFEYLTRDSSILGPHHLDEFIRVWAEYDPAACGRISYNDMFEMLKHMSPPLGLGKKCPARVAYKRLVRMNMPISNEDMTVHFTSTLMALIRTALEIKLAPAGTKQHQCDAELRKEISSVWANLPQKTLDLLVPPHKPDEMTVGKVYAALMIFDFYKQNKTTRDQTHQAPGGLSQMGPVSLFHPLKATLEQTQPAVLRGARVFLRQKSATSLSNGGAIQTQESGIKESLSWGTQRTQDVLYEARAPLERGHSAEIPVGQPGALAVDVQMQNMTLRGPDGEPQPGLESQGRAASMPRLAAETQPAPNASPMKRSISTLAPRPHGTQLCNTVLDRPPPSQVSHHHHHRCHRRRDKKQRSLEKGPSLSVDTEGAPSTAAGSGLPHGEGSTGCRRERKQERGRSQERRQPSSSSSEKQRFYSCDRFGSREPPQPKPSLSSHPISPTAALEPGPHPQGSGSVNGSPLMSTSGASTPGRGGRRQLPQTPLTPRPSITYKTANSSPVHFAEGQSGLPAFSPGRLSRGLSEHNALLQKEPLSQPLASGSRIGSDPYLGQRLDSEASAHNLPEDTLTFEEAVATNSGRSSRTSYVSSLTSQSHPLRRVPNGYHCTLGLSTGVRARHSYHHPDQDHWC
T1 sequence (P54290 25-944 partner limits assumed): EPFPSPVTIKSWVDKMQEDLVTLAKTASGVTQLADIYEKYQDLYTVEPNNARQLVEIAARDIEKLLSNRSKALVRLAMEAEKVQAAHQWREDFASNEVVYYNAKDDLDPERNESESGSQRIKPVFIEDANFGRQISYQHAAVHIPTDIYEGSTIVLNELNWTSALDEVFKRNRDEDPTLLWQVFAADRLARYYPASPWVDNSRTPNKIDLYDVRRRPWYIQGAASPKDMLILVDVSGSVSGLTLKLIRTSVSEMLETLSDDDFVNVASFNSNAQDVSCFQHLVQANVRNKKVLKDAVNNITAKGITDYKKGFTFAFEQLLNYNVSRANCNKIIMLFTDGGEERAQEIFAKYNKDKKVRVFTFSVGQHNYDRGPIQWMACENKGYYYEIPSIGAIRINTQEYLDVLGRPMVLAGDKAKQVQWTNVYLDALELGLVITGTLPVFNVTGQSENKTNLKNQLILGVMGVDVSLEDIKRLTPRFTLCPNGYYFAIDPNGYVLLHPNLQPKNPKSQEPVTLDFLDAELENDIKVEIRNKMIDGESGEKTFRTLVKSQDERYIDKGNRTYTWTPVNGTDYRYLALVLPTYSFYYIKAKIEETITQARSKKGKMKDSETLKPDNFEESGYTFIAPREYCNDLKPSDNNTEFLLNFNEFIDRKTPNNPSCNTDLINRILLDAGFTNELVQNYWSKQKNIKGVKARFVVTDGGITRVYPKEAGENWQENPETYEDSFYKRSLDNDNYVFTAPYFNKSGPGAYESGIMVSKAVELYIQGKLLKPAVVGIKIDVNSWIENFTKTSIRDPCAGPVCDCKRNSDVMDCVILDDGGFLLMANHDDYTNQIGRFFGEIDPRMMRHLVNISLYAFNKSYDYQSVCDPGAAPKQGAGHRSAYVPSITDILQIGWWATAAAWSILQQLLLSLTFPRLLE
T1 sequence (P54290 945-1091 partner limits assumed): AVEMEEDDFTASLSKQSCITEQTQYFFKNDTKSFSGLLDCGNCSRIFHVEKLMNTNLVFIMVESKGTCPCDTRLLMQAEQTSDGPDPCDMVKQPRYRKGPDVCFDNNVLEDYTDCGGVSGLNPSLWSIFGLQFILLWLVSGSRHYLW
T1 sequence (P54283 whole entry partner): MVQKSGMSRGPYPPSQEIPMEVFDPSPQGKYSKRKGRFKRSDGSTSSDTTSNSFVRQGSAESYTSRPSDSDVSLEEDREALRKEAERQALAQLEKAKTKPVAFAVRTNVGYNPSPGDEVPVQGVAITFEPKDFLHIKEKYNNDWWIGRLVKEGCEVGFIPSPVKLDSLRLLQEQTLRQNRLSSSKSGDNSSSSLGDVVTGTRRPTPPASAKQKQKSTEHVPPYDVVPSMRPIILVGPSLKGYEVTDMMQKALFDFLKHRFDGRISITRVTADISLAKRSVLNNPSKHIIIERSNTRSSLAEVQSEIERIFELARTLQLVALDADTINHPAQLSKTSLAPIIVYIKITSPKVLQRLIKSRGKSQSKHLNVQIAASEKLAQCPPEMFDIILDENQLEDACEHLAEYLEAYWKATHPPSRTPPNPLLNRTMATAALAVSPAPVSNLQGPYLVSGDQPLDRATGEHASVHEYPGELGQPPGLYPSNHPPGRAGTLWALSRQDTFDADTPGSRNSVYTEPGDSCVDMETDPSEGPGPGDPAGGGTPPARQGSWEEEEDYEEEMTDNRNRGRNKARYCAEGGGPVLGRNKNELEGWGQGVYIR

Compound	IC50
C(=Cc1ccccc1)CN1CCN(CC(C2CCCCC2)C2CCCCC2)CC1	10.2 µM
O=C(C(c1ccccc1)C1CCCCC1)N1CCN(Cc2ccccc2)CC1 (stereo not drawn) [Ya=φ, c-hex; X^1=CHCO; X^2=CH2; Ar=φ]	~20 µM
O=C(C(c1ccccc1)C1CCCCC1)N1CCN(CC=Cc2ccccc2)CC1 (stereo not drawn)	~5 µM
C(=Cc1ccccc1)CN1CCN(CCCCCCC(c2ccccc2)C2CCCCC2)CC1 (stereo not drawn)	3.2 µM
C(=Cc1ccccc1)CN1CCN(CC(c2ccccc2)C2CCCCC2)CC1 (stereo not drawn)	10.6 µM and ~5 µM
O=C(CCCCCC(c1ccccc1)C1CCCCC1)N1CCN(CC=Cc2ccccc2)CC1 (stereo not drawn)	12.2 µM
O=C(C(C1CCCCC1)C1CCCCC1)N1CCN(CC=Cc2ccccc2)CC1	5.9 µM
C(=Cc1ccccc1)CN1CCN(CCCCCC(c2ccccc2)C2CCCCC2)CC1 (stereo not drawn)	5.9 µM
O=C(C(C1CCCCC1)C1CCCCC1)N1CCN(Cc2ccccc2)CC1 [Ya=c-hex, c-hex; X^1=CHCO; X^2=CH2; Ar=φ]	14.2 µM
